System: not given
Assay: not given
Conditions: not given

Row | melting point [°C] | Compound
1 | 167.2 to 168 | O=C(O)CCc1ccc(OCc2ccnc(-c3ccc(F)cc3)n2)cc1 [Example 1, 3-{4-[2-(4-fluorophenyl)-pyrimidin-4-yl-methoxy]-phenyl}-propionic acid]
2 | 168.3 to 169.4 | O=C(O)CCc1ccc(OCc2ccnc(-c3ccc(Cl)cc3)n2)cc1 [Example 2, 3-{4-[2-(4-chlorophenyl)-pyrimidin-4-yl-methoxy]-phenyl}-propionic acid]
3 | 168 to 168.8 | O=C(O)CCc1ccc(OCc2ccnc(-c3ccc(Br)cc3)n2)cc1 [Example 3, 3-{4-[2-(4-bromophenyl)-pyrimidin-4-yl-methoxy]-phenyl}-propionic acid]
4 | 146.6 to 147.5 | O=C(O)CCc1ccc(OCc2ccnc(-c3ccc(C(F)(F)F)cc3)n2)cc1 [Example 4, 3-{4-[2-(4-trifluoromethylphenyl)-pyrimidin-4-yl-methoxy]-phenyl}-propionic acid]
5 | 143.8 to 144.1 | O=C(O)CCc1ccc(OCc2ccnc(-c3c(F)cc(F)cc3F)n2)cc1 [Example 5, 3-{4-[2-(2,4,6-trifluorophenyl)-pyrimidin-4-yl-methoxy]-phenyl}-propionic acid]
6 | 159.3 to 160.2 | Cc1cc(SCc2ccnc(-c3ccc(C(F)(F)F)cc3)n2)ccc1OCC(=O)O [example 7, {2-methyl-4-[2-(4-trifluoromethylphenyl)-pyrimidin-4-yl-methylthio]phenoxy}-acetic acid]
7 | 139.5 to 140.4 | Cc1cc(SCc2ccnc(-c3ccc(F)cc3)n2)ccc1OC(C)(C)C(=O)O [example 18, 2-methyl-2-{2-methyl-4-[2-(4-fluorophenyl)-pyrimidin-4-yl-methylthio]-phenoxy}-propionic acid]

Target: T1, human PPARδ (Homo sapiens, UniProt Q03181)
T1 construct: expressed in transfected cells; host or cells: HEK-293 cells (transient co-transfection)
T1 sequence (Q03181 211-439 limits assumed): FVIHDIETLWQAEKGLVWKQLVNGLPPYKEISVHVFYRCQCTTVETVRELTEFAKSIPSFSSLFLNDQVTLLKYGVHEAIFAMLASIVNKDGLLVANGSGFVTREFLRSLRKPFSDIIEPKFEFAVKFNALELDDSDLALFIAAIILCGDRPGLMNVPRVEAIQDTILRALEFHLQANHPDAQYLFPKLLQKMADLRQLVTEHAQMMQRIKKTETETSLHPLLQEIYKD
Assay: Transfection determination: pM-hPPARδ/GAL4 chimeric receptor luciferase reporter, transient transfection in HEK-293 cells
Type: cell-based
Conditions: 1 μM, luciferase read 24 hours after administration, GW501516 positive control
Text: Transfection Determination
The functional titration of the transient transfection of the compounds in HEK-293 cells was screened to determine their ability to activate PPAR subtype. Chimeric acceptor system was built in advance to compare relative transcription activity of acceptor subtype to same target gene and prevent the complexness of endogenous acceptor activation due to the explanation of results. Ligand binding domain of human PPARδ was fused to yeast transcription factor GAL4DNA binding domain, and then linked to expression carrier pM of mammal to build pM-hPPARδ/GAL4 plasmids. GAL4DNA binding region was connected to pB4-tk-luc to pB4-RES-tk-luc (a report gene of firefly luciferin enzyme containing 5 templates of GAL4DNA binding site). pRL-CMV-Rluc was used as internal standard to correct transfection efficiency and endogenous influence and reduce experimental error.
HEK-293 cells were grown in 48 wells plate, the density of cells was 2-4×10^4/well. The culture medium was 1640 of 10% defatted FCS free of phenol red and antibiotics. After 48 hours, the culture medium was changed as 1640 of 5% defatted FCS free of phenol red and antibiotics, and then pM-hPPARδ/GAL4, pB4-RES-tk-luc and pRL-CMV-Rluc plasmids were co-transfected in HEK-293 cells. The drug was administered after 24 hours, and the luminous intensity of luciferin enzyme was determined 24 hours after administration. The control was 0.2% DMSO.

Row | Activation ability % (Activation of part of compounds for PPARδ) [%] | Compound
8 | 144.86 | 2-methyl-2-{2-methyl-4-[2-(4-trichloromethylphenyl)-pyrimidin-4-yl-methylthio]-phenoxy}-propionic acid [example 20]
9 | 94.86 | Cc1cc(SCc2ccnc(-c3ccc(C(F)(F)F)cc3)n2)ccc1OCC(=O)O [example 7, {2-methyl-4-[2-(4-trifluoromethylphenyl)-pyrimidin-4-yl-methylthio]phenoxy}-acetic acid]
10 | 135.46 | Cc1cc(SCc2ccnc(-c3ccc(F)cc3)n2)ccc1OCC(=O)O [example 8, {2-methyl-4-[2-(4-fluorophenyl)-pyrimidin-4-yl-methylthio]-phenoxy}-acetic acid]
11 | 88.35 | Cc1cc(SCc2ccnc(-c3ccc(Cl)cc3)n2)ccc1OCC(=O)O [example 9, {2-methyl-4-[2-(4-chlorophenyl)-pyrimidin-4-yl-methylthio]-phenoxy}-acetic acid]
12 | 108.55 | Cc1cc(SCc2ccnc(-c3ccc(Br)cc3)n2)ccc1OCC(=O)O [example 10, {2-methyl-4-[2-(4-bromophenyl)-pyrimidin-4-yl-methylthio]-phenoxy}-acetic acid]
13 | 119.51 | Cc1cc(SCc2ccnc(-c3ccc(Cl)cc3)n2)ccc1OC(C)(C)C(=O)O [example 17, 2-methyl-2-{2-methyl-4-[2-(4-chlorophenyl)-pyrimidin-4-yl-methylthio]-phenoxy}-propionic acid]
14 | 103.26 | Cc1cc(SCc2ccnc(-c3ccc(F)cc3)n2)ccc1OC(C)(C)C(=O)O [example 18, 2-methyl-2-{2-methyl-4-[2-(4-fluorophenyl)-pyrimidin-4-yl-methylthio]-phenoxy}-propionic acid]
